Molecular target: T1, hTDO2 (Homo sapiens, UniProt P48775)
T1 construct: endogenous in cells; host or cells: A172 human brain glioblastoma cells (ATCC CRL-1620)
Test: Cellular assay for TDO2 activity determination in A172 cells
Type: cell-based
Settings: human glioblastoma A172 cells naturally expressing hTDO2; overnight incubation; kynurenine by absorbance at 480 nm
Procedure, shortened: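 A172 glioblastoma cells endogenously expressing hTDO2, 1.25×10^4 cells/well, incubated overnight at 37 °C, 5% CO2 in IMDM with 2% FBS and ten compound concentrations. Supernatant kynurenine measured after TCA treatment and Ehrlich's reagent (4-dimethylaminobenzaldehyde) by absorbance at 480 nm against a kynurenine standard curve, then curve-fitted.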

T1 sequence (P48775 whole entry): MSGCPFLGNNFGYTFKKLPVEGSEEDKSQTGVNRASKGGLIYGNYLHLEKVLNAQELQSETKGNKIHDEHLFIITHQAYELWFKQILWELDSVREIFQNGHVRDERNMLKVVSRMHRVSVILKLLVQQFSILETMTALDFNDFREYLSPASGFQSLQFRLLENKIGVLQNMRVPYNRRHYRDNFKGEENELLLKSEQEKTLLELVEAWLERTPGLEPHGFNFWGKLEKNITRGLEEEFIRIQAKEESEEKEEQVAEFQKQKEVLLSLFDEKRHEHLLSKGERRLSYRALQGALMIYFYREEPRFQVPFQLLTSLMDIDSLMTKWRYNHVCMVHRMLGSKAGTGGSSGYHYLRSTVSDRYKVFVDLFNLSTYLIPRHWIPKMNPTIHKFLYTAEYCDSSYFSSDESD

Row | IC50 [nM] | Structure (SMILES)
1 | 342 | O=S1(=O)c2ccc(-c3c[nH]c4cc(F)ccc34)cc2CN1[C@H]1CCOC1 [Example 39, (S)-5-(6-fluoro-1H-indol-3-yl)-2-(tetrahydrofuran-3-yl)-2,3-dihydrobenzo[d]isothiazole 1,1-dioxide]
2 | 76 | CC1c2cc(-c3c[nH]c4cc(F)ccc34)ccc2S(=O)(=O)N1CC[S+](C)[O-] (single isomer, unassigned; (+)) [Example 55, (+)-5-(6-fluoro-1H-indol-3-yl)-3-methyl-2-(2-(methylsulfinyl)ethyl)-2,3-dihydrobenzo[d]isothiazole 1,1-dioxide]
3 | 81 | O=S1(=O)c2ccc(-c3c[nH]c4cc(F)ccc34)cc2C(CO)N1CCO (single isomer, unassigned; (-)) [Example 132, (−)-5-(6-fluoro-1H-indol-3-yl)-2-(2-hydroxyethyl)-3-(hydroxymethyl)-2,3-dihydrobenzo[d]isothiazole 1,1-dioxide]
4 | 230 | CN(C)CCN1Cc2cc(-c3c[nH]c4cc(F)ccc34)ccc2S1(=O)=O [Example 32, 2-(2-(dimethylamino)ethyl)-5-(6-fluoro-1H-indol-3-yl)-2,3-dihydrobenzo[d]isothiazole 1,1-dioxide]
5 | 260 | CC1c2cc(-c3c[nH]c4cc(F)ccc34)ccc2S(=O)(=O)N1C1CNC1 (single isomer, unassigned; (-)) [Example 91, (−)-2-(azetidin-3-yl)-5-(6-fluoro-1H-indol-3-yl)-3-methyl-2,3-dihydrobenzo[d]isothiazole 1,1-dioxide]
6 | 264 | CC1c2cc(-c3c[nH]c4cc(F)ccc34)ccc2S(=O)(=O)N1CCN1CCOC1=O (single isomer, unassigned; (+)) [Example 69, (+)-3-(2-(5-(6-fluoro-1H-indol-3-yl)-3-methyl-1,1-dioxidobenzo[d]isothiazol-2(3H)-yl)ethyl)oxazolidin-2-one]
7 | 345 | CCOC(=O)NCCN1C(C)c2cc(-c3c[nH]c4cc(F)ccc34)ccc2S1(=O)=O (single isomer, unassigned; (-)) [Example 109, (−)-ethyl (2-(5-(6-fluoro-1H-indol-3-yl)-3-methyl-1,1-dioxidobenzo[d]isothiazol-2(3H)-yl)ethyl)carbamate]
8 | 57 | CC1c2cc(-c3c[nH]c4cc(F)ccc34)ccc2S(=O)(=O)N1Cc1ncn(C)n1 (single isomer, unassigned; (-)) [Example 85, (−)-5-(6-fluoro-1H-indol-3-yl)-3-methyl-2-((1-methyl-1H-1,2,4-triazol-3-yl)methyl)-2,3-dihydrobenzo[d]isothiazole 1,1-dioxide]
9 | 191 | CC1c2cc(-c3c[nH]c4cc(F)ccc34)ccc2S(=O)(=O)N1CCN1CCOCC1 (single isomer, unassigned; (+)) [Example 118, (+)-5-(6-fluoro-1H-indol-3-yl)-3-methyl-2-(2-morpholinoethyl)-2,3-dihydrobenzo[d]isothiazole 1,1-dioxide]
10 | 9500 | Cc1cc(O)n(CCN2C(C)c3cc(-c4c[nH]c5cc(F)ccc45)ccc3S2(=O)=O)n1 (single isomer, unassigned; (+)) [Example 67, (+)-5-(6-fluoro-1H-indol-3-yl)-2-(2-(5-hydroxy-3-methyl-1H-pyrazol-1-yl)ethyl)-3-methyl-2,3-dihydrobenzo[d]isothiazole 1,1-dioxide]
11 | 34 | O=S1(=O)NC(CCO)c2cc(-c3c[nH]c4cc(F)ccc34)ccc21 (single isomer, unassigned; (+)) [Example 30, (+)-5-(6-fluoro-1H-indol-3-yl)-3-(2-hydroxyethyl)-2,3-dihydrobenzo[d]isothiazole 1,1-dioxide]
12 | 70 | CC1c2cc(-c3c[nH]c4cc(F)ccc34)ccc2S(=O)(=O)N1CCO (single isomer, unassigned; (+)) [Example 63, (+)-5-(6-fluoro-1H-indol-3-yl)-2-(2-hydroxyethyl)-3-methyl-2,3-dihydrobenzo[d]isothiazole 1,1-dioxide]
